Results: patent US10413562B2, “Compositions and methods for the production of pyrimidine and pyridine compounds with BTK inhibitory activity” (Merck Patent GmbH, priority 2011, dated 2019)

Legend:
PBMC = assay: Time dependent PBMC IC50 assay; type: cell-based
Protocol: Compounds described by embodiments of the present invention were assayed using a time dependent PMBC assay.

NZB/W F1 mice = assay: Interferon-alpha accelerated systemic lupus erythematosus (SLE) mouse model; type: in vivo; conditions: ADV-IFN-alpha accelerated SLE, oral daily 0.1, 0.3, 1 or 3 mg/kg from day 14
Protocol: 1-(4-(((6-amino-5-(4-phenoxyphenyl)pyrimidin-4-yl)amino)methyl)piperidin-1-yl)prop-2-en-1-one, designated as “CPD. B”, was evaluated in an interferon-alpha accelerated SLE mouse model. NZB/W F1 mice received i.v. injection at day 0 and day 1 of 10^8 infectious units of adenovirus (ADV-IFN-α) to deliver a transient overexpression on interferon alpha. Oral dosing of the different group treatments was initiated on day 14 and continued daily at 24 hour intervals until the end of the study. Treatment groups consisted of 20% Kleptose HPB in Na-citrate buffer (vehicle) or 0.1, 0.3, 1, or 3 mg/kg of Cpd. […] As shown in Panel 1B Cpd. […] FIG. 2 presents data from another interferon-alpha accelerated SLE experiment in mice. NZB/W F1 mice received i.v. injections at day 0 and day 1 of 10^8 infectious units of adenovirus (ADV-IFN-α) to deliver a transient overexpression on interferon alpha. Oral dosing of the different group treatments (n=10) was initiated on day 14 and continued daily at 24 hour intervals until the end of the study. Treatment groups consisted of 20% Kleptose HPB in Na-citrate buffer (vehicle), 0.1, 0.3, 1, or 3 mg/kg of Cpd. B or Cell Cept®. […] Statiscal analysis was performed using Two way ANOVA with Bonferroni post test with all groups compared to vehicle treated group (*=p<0.05, **=p<0.01, ***=p<0.001).

SMILES | IC50 (PBMC) [µM] | disease activity (NZB/W F1 mice)
C=CC(=O)N1C2CCC1CC(CNc1ncnc(N)c1-c1ccc(Oc3ccccc3)cc1)C2 (centres unmarked) [Compound A48, 1-(3-(((6-amino-5-(4-phenoxyphenyl)pyrimidin-4-yl)amino)methyl)-8-azabicyclo[3.2.1]octan-8-yl)prop-2-en-1-one] | < 1 | –
C=CC(=O)N1CCC(CNc2ncnc(N)c2-c2ccc(Oc3ccccc3)cc2)CC1 [Cpd. B, 1-(4-(((6-amino-5-(4-phenoxyphenyl)pyrimidin-4-yl)amino)methyl)piperidin-1-yl)prop-2-en-1-one] | – | reduces the disease activity in a dose-dependent manner
